# Source: patent US20250304623A1, “PEPTIDES FOR INTRACELLULAR DELIVERY” (UNIVERSIDADE DE SANTIAGO DE COMPOSTELA, priority 2022, published 2025)
# *: point of attachment. NHNH2 = NN*
# Experiments:
# Type in all cases: cell-based
# HCT116 cells = test: RLuc pDNA delivery, robotic library screening, HCT116
# [1] = system: ARPE19 cells expressing EGFP; test: EGFP-targeting siRNA delivery (GFP silencing vs siMOCK), ARPE19
# Description: (§1) To generate an EGFP expressing HeLa cell line, HeLa cells were transfected with EGFP pDNA (pEGFP-C1, Clontech) and stable transfectants were selected with 400 μg/mL of G-418 (Millipore). Green clones were selected by epifluorescence microscopy and tested for EGFP expression stability through several passages. […] All other EGFP-expressing cell lines were obtained in a similar way from parent non-EGFP-expressing cell lines.
# Cells expressing EGFP were seeded in a 96 well plate the day before the experiment at a concentration of 50,000 cell/mL (100 μL/w) in DMEM+10% FBS+1% Gln-Abt. For robotic library screening, the delivery of an EGFP-targeting siRNA (EGFP: enhanced green fluorescent protein, Ambion® Silencer® GFP Positive Control siRNA (siGFP) (AM4626)) in six different cell lines expressing EGFP was performed. […] The mixture was shaken for 30 min at room temperature (rt) before the addition to the cells. The cell medium was aspirated, and cells were washed twice with PBS. Finally, 50 μL of the solution of siRNA/amphiphile complexes were added to the cells and incubated for 4 h. After transfection, the medium was replaced by 100 μL of fresh DMEM supplemented with 10% FBS. The fluorescence knockdown was quantified after 72 h in a plate reader, by comparison with cells transfected with a non-targeting siRNA control (siMOCK, Silencer™ Negative Control No. 1 siRNA (siMOCK) (AM4611)). EGFP knockdown was compared with Lipofectamine® RNAiMAX silencing efficiency (30-60% depending on cell line, defined with a numeric value in the below tables). All experiments were done in triplicate.
# Tables 1-7: RLuc (pDNA) or EGFP (mRNA) expression levels were normalized to Lipofectamine reagents (value=1) and expressed as fold-times signal increase. In the case of siRNA, the siRNA treated cells fluorescence was compared with siMOCK control fluorescence, while Cas9-RNP mediated knockout was measured against the fluorescence of untreated cells. In both siRNA and Cas9-RNP, values are expressed as % fluorescence reduction. Amphiphile concentration was 5 μM in all cases. All experiments were performed in triplicate.
# Tables 20-25 show the mean (triplicates) percentage of GFP-silencing, accounted by fluorescence intensity decrease relative to a non-targeting siRNA (siMOCK) control, measured after the transfection of siRNA by different amphiphiles at different concentrations in a variety of cell lines. Background values, accounted by untreated control cells, were subtracted for processing.
# [2] = system: ARPE19 cells expressing EGFP; test: Cas9-RNP delivery against EGFP (gene editing, plate reader), ARPE19
# Description: as §1
# Cells expressing EGFP were seeded in a 96 well plate the day before the experiment at a concentration of 50,000 cell/mL (100 μL/w) in DMEM+10% FBS+1% Gln-Abt. For robotic library screening, the delivery of Cas9-RNP against EGFP (RNP designed to knock-out the gene encoding for the enhanced green fluorescent protein (EGFP)) was performed. For RNP assembly, 9.2 μL of crRNA and 9.2 μL of tracrRNA were mixed in 211.6 μL of Nuclease-Free Duplex Buffer (IDT), incubated for 5 min at 95° C. and slowly cooled at rt (see I. Lostalé-Seijo, et al. Peptide/Cas9 nanostructures for ribonucleoprotein cell membrane transport and gene edition, Chem. Sci., 2017). Cas9 protein was dissolved in DMEM at a final concentration of 4 μM and equal volumes of the RNA complex and Cas9 were mixed and incubated for 5 min at rt. 75 μL of the corresponding amphiphile concentrations were added to 5 μL of RNP at 2 μM. The mixture was shaken for 30 min at room temperature before the addition to the cells. The cell medium was aspirated, and cells were washed twice with PBS. Cells were covered with 30 μL of DMEM and 20 μL of the RNP/amphiphile complexes were added to the cells (final peptide concentrations=2.5, 5 and 10 μM; final Cas9-RNP concentration=50 nM) and incubated for 4 h. After the incubation, the medium was replaced by 100 μL of fresh DMEM supplemented with 10% FBS. The total EGFP fluorescence was quantified after 72 h in a plate reader (FIG. 2, Table 1 (right) and Table 6). All experiments were done in triplicate. […]
# Tables 26-31 show the mean (triplicates) percentage of gene editing, accounted by GFP fluorescence intensity decrease (% of reduction), measured after the transfection of Cas9-RNP by different amphiphiles at different concentrations in a variety of cell lines. Background values, accounted by untreated control cells, were subtracted for processing.
substance,measurement,setting,value
"Ac-RRHK*RLK*RRLK*RL-NH2 (Ac-RRHK(NHNH2)RLK(NHNH2)RRLK(NHNH2)RL-NH2; not fully specified; printed as Ac-RRHK*RLK*RRLK*RL-NH2; also: K*4,K*7,K*11: native or modified lysine (ε-amide to a linker)) [13(Leu-His)]",mean luminescent intensity (RLuc pDNA),"HCT116 cells; Myristoleyl, 5 μM",76409 RLU
same,mean luminescent intensity (RLuc pDNA),"HCT116 cells; Myristoleyl, 15 μM",429 RLU
same,mean luminescent intensity (RLuc pDNA),"HCT116 cells; Palmitoleyl, 5 μM",123206 RLU
same,mean luminescent intensity (RLuc pDNA),"HCT116 cells; Petroselinyl, 5 μM",116309 RLU
same,mean luminescent intensity (RLuc pDNA),"HCT116 cells; Petroselinyl, 10 μM",33439 RLU
same,mean luminescent intensity (RLuc pDNA),"HCT116 cells; Petroselinyl, 15 μM",4972 RLU
same,percentage of GFP-silencing relative to siMOCK,"[1]; Dodecanal, 5 μM",27%
same,percentage of GFP-silencing relative to siMOCK,"[1]; Dodecanal, 10 μM",31%
same,percentage of GFP-silencing relative to siMOCK,"[1]; Dodecanal, 15 μM",41%
same,percentage of GFP-silencing relative to siMOCK,"[1]; Myristoleyl, 10 μM",25%
same,percentage of GFP-silencing relative to siMOCK,"[1]; Myristoleyl, 15 μM",0%
same,percentage of GFP-silencing relative to siMOCK,"[1]; Oleyl, 10 μM",26%
same,percentage of GFP-silencing relative to siMOCK,"[1]; Oleyl, 15 μM",15%
same,percentage of GFP-silencing relative to siMOCK,"[1]; Palmitoleyl, 5 μM",46%
same,percentage of GFP-silencing relative to siMOCK,"[1]; Palmitoleyl, 10 μM",26%
same,percentage of GFP-silencing relative to siMOCK,"[1]; Palmitoleyl, 15 μM",24%
same,percentage of GFP-silencing relative to siMOCK,"[1]; Petroselinyl, 10 μM",34%
same,percentage of GFP-silencing relative to siMOCK,"[1]; Petroselinyl, 15 μM",13%
same,"percentage of gene editing, GFP fluorescence intensity decrease (% of reduction)","[2]; Oleyl, 10 μM",−6%
same,"percentage of gene editing, GFP fluorescence intensity decrease (% of reduction)","[2]; Palmitoleyl, 10 μM",−13%
same,"percentage of gene editing, GFP fluorescence intensity decrease (% of reduction)","[2]; Palmitoleyl, 15 μM",6%
same,"percentage of gene editing, GFP fluorescence intensity decrease (% of reduction)","[2]; Petroselinyl, 15 μM",22%
Ac-RRLK*RLK*RRLK*RL-NH2 [Peptide 13.3],mean luminescent intensity (RLuc pDNA),"HCT116 cells; Dodecanal, 5 μM",60338 RLU
same,mean luminescent intensity (RLuc pDNA),"HCT116 cells; Dodecanal, 10 μM",4741 RLU
same,mean luminescent intensity (RLuc pDNA),"HCT116 cells; Myristoleyl, 5 μM",51434 RLU
same,mean luminescent intensity (RLuc pDNA),"HCT116 cells; Myristoleyl, 10 μM",32315 RLU
same,mean luminescent intensity (RLuc pDNA),"HCT116 cells; Myristoleyl, 15 μM",3431 RLU
same,mean luminescent intensity (RLuc pDNA),"HCT116 cells; Oleyl, 15 μM",1949 RLU
same,mean luminescent intensity (RLuc pDNA),"HCT116 cells; Palmitoleyl, 5 μM",142094 RLU
same,mean luminescent intensity (RLuc pDNA),"HCT116 cells; Palmitoleyl, 15 μM",17328 RLU
same,mean luminescent intensity (RLuc pDNA),"HCT116 cells; Petroselinyl, 5 μM",14318 RLU
same,mean luminescent intensity (RLuc pDNA),"HCT116 cells; Petroselinyl, 10 μM",99695 RLU
same,mean luminescent intensity (RLuc pDNA),"HCT116 cells; Petroselinyl, 15 μM",36052 RLU
same,percentage of GFP-silencing relative to siMOCK,"[1]; Dodecanal, 5 μM",29%
same,percentage of GFP-silencing relative to siMOCK,"[1]; Dodecanal, 10 μM",51%
same,percentage of GFP-silencing relative to siMOCK,"[1]; Dodecanal, 15 μM",37%
same,percentage of GFP-silencing relative to siMOCK,"[1]; Palmitoleyl, 10 μM",11%
same,percentage of GFP-silencing relative to siMOCK,"[1]; Petroselinyl, 5 μM",11%
same,percentage of GFP-silencing relative to siMOCK,"[1]; Petroselinyl, 10 μM",13%
same,percentage of GFP-silencing relative to siMOCK,"[1]; Petroselinyl, 15 μM",−42%
same,"percentage of gene editing, GFP fluorescence intensity decrease (% of reduction)","[2]; Dodecanal, 10 μM",13%
same,"percentage of gene editing, GFP fluorescence intensity decrease (% of reduction)","[2]; Dodecanal, 15 μM",18%
same,"percentage of gene editing, GFP fluorescence intensity decrease (% of reduction)","[2]; Myristoleyl, 10 μM",32%
same,"percentage of gene editing, GFP fluorescence intensity decrease (% of reduction)","[2]; Myristoleyl, 15 μM",38%
same,"percentage of gene editing, GFP fluorescence intensity decrease (% of reduction)","[2]; Oleyl, 5 μM",20%
same,"percentage of gene editing, GFP fluorescence intensity decrease (% of reduction)","[2]; Petroselinyl, 15 μM",−11%
"Ac-RRLK*RLLRRLK*RL-NH2 (Ac-RRLK(NHNH2)RLLRRLK(NHNH2)RL-NH2; not fully specified; printed as Ac-RRLK*RLLRRLK*RL-NH2; also: K*4,K*11: native or modified lysine (ε-amide to a linker)) [Peptide 13.2]",mean luminescent intensity (RLuc pDNA),"HCT116 cells; Oleyl, 5 μM",15723 RLU
same,mean luminescent intensity (RLuc pDNA),"HCT116 cells; Oleyl, 10 μM",2338 RLU
same,mean luminescent intensity (RLuc pDNA),"HCT116 cells; Oleyl, 15 μM",1593 RLU
same,percentage of GFP-silencing relative to siMOCK,"[1]; Oleyl, 10 μM",22%
same,percentage of GFP-silencing relative to siMOCK,"[1]; Oleyl, 15 μM",1%
same,"percentage of gene editing, GFP fluorescence intensity decrease (% of reduction)","[2]; Oleyl, 5 μM",13%
same,"percentage of gene editing, GFP fluorescence intensity decrease (% of reduction)","[2]; Oleyl, 10 μM",−7%
